Test results published in US11046697B2, “Compounds and compositions useful for treating disorders related to NTRK” (BLUEPRINT MEDICINES CORPORATION, priority 2015, dated 2021).
Like-named read-outs stand apart in the source and are kept apart here.

Tests used:
wild type NTRK1 enzyme = target: T1, wild type NTRK1 enzyme (Homo sapiens, UniProt P04629); test: NTRK1 Wild Type Assay at 1 mM ATP; type: biochemical; conditions: 1 mM ATP; read-out: Enz NTRK1 IC50
T1 construct: purchased BPS Bioscience 40280
T1 sequence (P04629 440-796 limits assumed): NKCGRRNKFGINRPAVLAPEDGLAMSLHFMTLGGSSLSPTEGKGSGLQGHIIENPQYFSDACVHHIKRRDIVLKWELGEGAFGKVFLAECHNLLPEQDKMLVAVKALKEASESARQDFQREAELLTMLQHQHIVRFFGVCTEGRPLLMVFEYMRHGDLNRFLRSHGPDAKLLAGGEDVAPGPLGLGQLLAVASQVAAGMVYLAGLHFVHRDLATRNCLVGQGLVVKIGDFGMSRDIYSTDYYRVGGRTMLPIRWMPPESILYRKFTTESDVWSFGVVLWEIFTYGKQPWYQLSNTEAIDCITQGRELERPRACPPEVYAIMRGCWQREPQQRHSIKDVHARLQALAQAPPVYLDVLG
Procedure: NTRK1 Wild Type Assay at 1 mM ATP
The reaction was stopped by the addition of 70 μL of Stop buffer (100 mM HEPES pH 7.5, 0.015% Brij 35, 35 mM EDTA and 0.2% of Coating Reagent 3 (Caliper Lifesciences)). The plate was then read on a Caliper EZReader 2 (protocol settings: −1.7 psi, upstream voltage −500, downstream voltage −3000, post sample sip 35s).

[1] = system: KM12 wild type colon carcinoma cell line harboring the TPM3-NTRK1 fusion protein; test: NTRK wild type cellular assay (CellTiter-Glo growth inhibition); type: cell-based; conditions: 72 hr, CellTiter-Glo, read-out: KM12 (WT) IC50
Procedure: (§1) NTRK Wild Type and G595R Mutant Cellular Assays Protocol
(§2) KM12 wild type colon carcinoma cell line harboring the TPM3-NTRK1 fusion protein was obtained from the National Cancer Institute (NCI). This line has been previously shown to be dependent upon the NTRK activity derived from the NTRK fusion protein for growth and survival. […] Cells were first plated in 384-well plates at 1000 cells/well in complete media (10% FBS and 1% pen/strep) and incubated overnight at 37° C. Cells were then dosed with test articles at varying concentrations using the Bravo liquid handling system. […] Each compound was run in duplicate per plate. […] 72 hr after dosing, assay plates were developed using CellTiter-Glo (Promega) and resultant luminescence was read on the Envision plate reader. IC50 determinations were calculated using a 4-parameter curve fitting algorithm

[2] = system: KM12 Cliff (G595R) cell line; test: NTRK G595R mutant cellular assay (CellTiter-Glo growth inhibition); type: cell-based; conditions: 72 hr, CellTiter-Glo
Procedure: as §1, §2

| Structure (SMILES) | IC50 (wild type NTRK1 enzyme) | IC50 ([1]; Homo sapiens, KM12, 72 h) | IC50 ([2]; Homo sapiens, KM12, 72 h) | IC50 [1] | IC50 [2] |
| --- | --- | --- | --- | --- | --- |
| CN(Cc1cc(F)ccc1OC(F)(F)F)C(=O)c1n[nH]c2ncnc(N[C@@H]3CC[C@@H](O)[C@H]3O)c12 [Compound 110] | < 10 nM | 10 to 100 nM | 10 to 100 nM |  |  |
| O=C(c1n[nH]c2ncnc(N[C@H]3[C@H](O)[C@H](O)[C@@H]4C[C@@H]43)c12)N1CC(F)(F)C[C@@H]1c1cc(F)ccc1F [Compound 112] | 10 to 100 nM | 10 to 100 nM | 100 to 1000 nM |  |  |
| O=C(c1n[nH]c2ncnc(N[C@@H]3C[C@@H](C(F)F)[C@@H](O)[C@H]3O)c12)N1C[C@@H](F)C[C@@H]1c1cc(F)ccc1F [Compound 114] | < 10 nM | < 10 nM | < 10 nM |  |  |
| CS(=O)(=O)C1CC(O)C(Nc2ncnc3[nH]nc(C(=O)N4CC(F)CC4c4cc(F)ccc4F)c23)C1 (stereo not drawn) [Compound 116] | < 10 nM | < 10 nM | < 10 nM |  |  |
| COc1ccc(F)cc1CNC(=O)c1n[nH]c2ncnc(N[C@@H]3CC[C@@H](O)[C@H]3O)c12 [Compound 117] | 100 to 1000 nM | 100 to 1000 nM | > 1000 nM |  |  |
| CN(Cc1cc(F)cc(Cl)c1F)C(=O)c1n[nH]c2ncnc(N[C@@H]3CC[C@@H](O)[C@H]3O)c12 [Compound 120] | 10 to 100 nM | 10 to 100 nM | 10 to 100 nM |  |  |
| O=C(c1n[nH]c2ncnc(N[C@H]3[C@H](O)[C@H](O)[C@@H]4C[C@@H]43)c12)N1C[C@@H](F)C[C@@H]1c1cccc(F)c1 [Compound 122] | < 10 nM | < 10 nM | < 10 nM |  |  |
| O=C(c1n[nH]c2ncnc(N[C@@H]3CC[C@@H](O)[C@H]3O)c12)N1C[C@@H](F)C[C@@H]1c1cc(F)cc(Cl)c1 [Compound 127] | < 10 nM | < 10 nM | < 10 nM |  |  |
| N#Cc1cc(F)cc([C@H]2C[C@H](F)CN2C(=O)c2n[nH]c3ncnc(N[C@H]4[C@H](O)[C@H](O)[C@@H]5C[C@@H]54)c23)c1 [Compound 129] | < 10 nM | 10 to 100 nM | 10 to 100 nM |  |  |
| O=C(c1n[nH]c2ncnc(N[C@@H]3CCC[C@@H](O)[C@H]3O)c12)N1C[C@@H](F)C[C@@H]1c1cc(F)cc(Cl)c1 [Compound 130] | < 10 nM |  |  | < 10 nM | < 10 nM |
| CN(Cc1ccccc1)C(=O)c1n[nH]c2ncnc(N[C@@H]3CC[C@@H](O)[C@H]3O)c12 [Compound 131] | 100 to 1000 nM |  |  | 100 to 1000 nM | 100 to 1000 nM |
| CN(Cc1cccc(F)c1)C(=O)c1n[nH]c2ncnc(N[C@@H]3CC[C@@H](O)[C@H]3O)c12 [Compound 132] | 10 to 100 nM | 10 to 100 nM | 100 to 1000 nM |  |  |
| CN(Cc1cccnc1F)C(=O)c1n[nH]c2ncnc(N[C@@H]3CC[C@@H](O)[C@H]3O)c12 [Compound 133] | 100 to 1000 nM |  |  | 100 to 1000 nM | 100 to 1000 nM |
| CN(Cc1cccc(C#N)c1)C(=O)c1n[nH]c2ncnc(N[C@@H]3CC[C@@H](O)[C@H]3O)c12 [Compound 134] | 100 to 1000 nM |  |  | 100 to 1000 nM | 100 to 1000 nM |
| CN(Cc1cc(F)cn(C)c1=O)C(=O)c1n[nH]c2ncnc(N[C@@H]3CCC[C@H]3O)c12 [Compound 136] | < 10 nM | 10 to 100 nM | 10 to 100 nM |  |  |
| CN(Cc1cccc(Cl)c1)C(=O)c1n[nH]c2ncnc(N[C@@H]3CC[C@@H](O)[C@H]3O)c12 [Compound 137] | 10 to 100 nM |  |  | 10 to 100 nM | 10 to 100 nM |
| CN(Cc1cccnc1Cl)C(=O)c1n[nH]c2ncnc(N[C@@H]3CC[C@@H](O)[C@H]3O)c12 [Compound 138] | 100 to 1000 nM |  |  | 100 to 1000 nM | 100 to 1000 nM |
| CN(Cc1cccc(F)c1F)C(=O)c1n[nH]c2ncnc(N[C@@H]3CC[C@@H](O)[C@H]3O)c12 [Compound 139] | 10 to 100 nM |  |  | 10 to 100 nM | 10 to 100 nM |
| CN(Cc1cccc(C#N)c1F)C(=O)c1n[nH]c2ncnc(N[C@@H]3CC[C@@H](O)[C@H]3O)c12 [Compound 142] | 10 to 100 nM |  |  | 10 to 100 nM | 100 to 1000 nM |
| O=C(c1n[nH]c2ncnc(N[C@@H]3CC[C@@H](O)[C@H]3O)c12)N1C[C@@H](F)C[C@@H]1c1ccccc1 [Compound 144] | 10 to 100 nM |  |  | 10 to 100 nM | 100 to 1000 nM |
| O=C(c1n[nH]c2ncnc(N[C@@H]3CCOC[C@H]3O)c12)N1C[C@@H](F)C[C@@H]1c1ccccc1 [Compound 145] | 100 to 1000 nM | 10 to 100 nM | 100 to 1000 nM |  |  |
| CN(Cc1cc(F)cn(C)c1=O)C(=O)c1n[nH]c2ncnc(N[C@@H]3CC[C@@H](O)[C@H]3O)c12 [Compound 147] | 10 to 100 nM | 100 to 1000 nM | 100 to 1000 nM |  |  |
